{
  "source": "patent US20240306639A1",
  "about": "“USE OF FLUAZIFOP-P-BUTYL FOR INSECT CONTROL” (priority 2021, published 2024)",
  "system": "Bemisia tabaci (Silverleaf whitefly)",
  "assay": "Curative control of Bemisia tabaci second nymph stage (N2) on French beans, spray application",
  "type": "in vivo",
  "excerpt": "Examples 1 to 3 describe biological tests relating to the curative and preventative control of a series of insects with the spray application of dilutions of a formulation containing fluazifop-P-butyl as sole active ingredient (EC125 formulation (FUSILADE MAX®)) in combination with OCHIMAR adjuvant (Syngenta-alkyl ester of phosphoric acid (752 g/L EC formulation)) to bean or cabbage plants infested with Bemisia tabaci, Frankliniella occidentalis or Myzus persicae. The testing protocols and insect control effects are shown. • ai=active ingredient (fluazifop-P-butyl).\nCurative control of Bemisia tabaci (Silverleaf whitefly), second nymph stage (N2), treated on French beans (BBCH12):\n• All treatments including check were applied with 250 mL adjuvant (Ochima) per hectare (ha).",
  "data": [
    {"smiles": "CCCCOC(=O)[C@@H](C)Oc1ccc(Oc2ccc(C(F)(F)F)cn2)cc1", "note": "[fluazifop-P-butyl, butyl (2R)-2-[4-[5-(trifluoromethyl)pyridin-2-yl]oxyphenoxy]propanoate]", "values": [
      {"measurement": "efficacy against whiteflies compared to thrips or aphids", "setting": "conclusion from the data in Tables 1 to 3", "value": "selective efficacy"},
      {"measurement": "controlling whitefly", "setting": "effect enhanced compared to aphids and thrips", "value": "highly effective"}
    ]}
  ]
}
